Experimental data published in PubChem BioAssay (NCI).
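The concentration for 50% growth inhibition is given as GI50. TGI marks complete inhibition of growth.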

Experiments:
Assay in all cases: NCI tumour cell line growth inhibition, 384-well format
786-0 renal = tested on: 786-0 renal
A549 NSCLC = tested on: A549 NSCLC
ACHN renal = tested on: ACHN renal
BT-549 breast = tested on: BT-549 breast
CCRF-CEM leukemia = tested on: CCRF-CEM leukemia
COLO 205 colon = tested on: COLO 205 colon
DU-145 prostate = tested on: DU-145 prostate
EKVX NSCLC = tested on: EKVX NSCLC
HCT-116 colon = tested on: HCT-116 colon
HL-60(TB) leukemia = tested on: HL-60(TB) leukemia
HOP-62 NSCLC = tested on: HOP-62 NSCLC
HS 578T breast = tested on: HS 578T breast
HT29 colon = tested on: HT29 colon
IGROV1 ovarian = tested on: IGROV1 ovarian
K-562 leukemia = tested on: K-562 leukemia
LOX IMVI melanoma = tested on: LOX IMVI melanoma
M14 melanoma = tested on: M14 melanoma
MCF7 breast = tested on: MCF7 breast
MDA-MB-231 breast = tested on: MDA-MB-231 breast
MDA-MB-435 melanoma = tested on: MDA-MB-435 melanoma
MDA-MB-468 breast = tested on: MDA-MB-468 breast
MOLT-4 leukemia = tested on: MOLT-4 leukemia
NCI-H226 lung = tested on: NCI-H226 lung
NCI-H23 lung = tested on: NCI-H23 lung
NCI-H322M lung = tested on: NCI-H322M lung
NCI-H460 NSCLC = tested on: NCI-H460 NSCLC
NCI/ADR-RES ovarian = tested on: NCI/ADR-RES ovarian
OVCAR-3 ovarian = tested on: OVCAR-3 ovarian
OVCAR-4 ovarian = tested on: OVCAR-4 ovarian
OVCAR-5 ovarian = tested on: OVCAR-5 ovarian
OVCAR-8 ovarian = tested on: OVCAR-8 ovarian
PC-3 prostate = tested on: PC-3 prostate
RPMI-8226 leukemia = tested on: RPMI-8226 leukemia
RXF 393 renal = tested on: RXF 393 renal
SF-268 CNS = tested on: SF-268 CNS
SF-539 CNS = tested on: SF-539 CNS
SK-MEL-28 melanoma = tested on: SK-MEL-28 melanoma
SK-MEL-5 melanoma = tested on: SK-MEL-5 melanoma
SN12C renal = tested on: SN12C renal
SNB-19 CNS = tested on: SNB-19 CNS
SNB-75 CNS = tested on: SNB-75 CNS
SR leukemia = tested on: SR leukemia
T-47D breast = tested on: T-47D breast
TK-10 renal = tested on: TK-10 renal
UACC-257 melanoma = tested on: UACC-257 melanoma
UACC-62 melanoma = tested on: UACC-62 melanoma
UO-31 renal = tested on: UO-31 renal

C[C@H](NC(=O)CCC(F)(F)F)C(=O)N[C@@H]1C(=O)N(CCO)c2ncccc2-c2ccccc21
GI50 ([…]-0 renal): > 100 µM | TGI (786-0 renal): > 100 µM | GI50 (A549 NSCLC): > 100 µM | TGI (A549 NSCLC): > 100 µM | GI50 (ACHN renal): > 100 µM | TGI (ACHN renal): > 100 µM | GI50 (BT-549 breast): > 100 µM | TGI (BT-549 breast): > 100 µM | GI50 (CCRF-CEM leukemia): 22.9 µM | TGI (CCRF-CEM leukemia): > 56.2 µM | GI50 (COLO 205 colon): > 100 µM | TGI (COLO 205 colon): > 100 µM | GI50 (DU-145 prostate): > 100 µM | TGI (DU-145 prostate): > 100 µM | GI50 (EKVX NSCLC): > 100 µM | TGI (EKVX NSCLC): > 100 µM | GI50 (HCT-116 colon): > 100 µM | TGI (HCT-116 colon): > 100 µM | GI50 (HL-60(TB) leukemia): 54.5 µM | TGI (HL-60(TB) leukemia): > 100 µM | GI50 (HOP-62 NSCLC): > 100 µM | TGI (HOP-62 NSCLC): > 100 µM | GI50 (HS 578T breast): > 100 µM | TGI (HS 578T breast): > 100 µM | GI50 (HT29 colon): > 100 µM | TGI (HT29 colon): > 100 µM | GI50 (IGROV1 ovarian): > 100 µM | TGI (IGROV1 ovarian): > 100 µM | GI50 (K-562 leukemia): 41.6 µM | TGI (K-562 leukemia): > 91.3 µM | GI50 (LOX IMVI melanoma): 43.3 µM | TGI (LOX IMVI melanoma): > 100 µM | GI50 (M14 melanoma): > 100 µM | TGI (M14 melanoma): > 100 µM | GI50 (MCF7 breast): > 100 µM | TGI (MCF7 breast): > 100 µM | GI50 (MDA-MB-231 breast): > 100 µM | TGI (MDA-MB-231 breast): > 100 µM | GI50 (MDA-MB-435 melanoma): > 100 µM | TGI (MDA-MB-435 melanoma): > 100 µM | GI50 (MDA-MB-468 breast): > 100 µM | TGI (MDA-MB-468 breast): > 100 µM | GI50 (MOLT-4 leukemia): 29.8 µM | TGI (MOLT-4 leukemia): > 100 µM | GI50 (NCI-H226 lung): > 100 µM | TGI (NCI-H226 lung): > 100 µM | GI50 (NCI-H23 lung): > 100 µM | TGI (NCI-H23 lung): > 100 µM | GI50 (NCI-H322M lung): > 100 µM | TGI (NCI-H322M lung): > 100 µM | GI50 (NCI-H460 NSCLC): > 100 µM | TGI (NCI-H460 NSCLC): > 100 µM | GI50 (NCI/ADR-RES ovarian): > 100 µM | TGI (NCI/ADR-RES ovarian): > 100 µM | GI50 (OVCAR-3 ovarian): > 100 µM | TGI (OVCAR-3 ovarian): > 100 µM | GI50 (OVCAR-4 ovarian): > 100 µM | TGI (OVCAR-4 ovarian): > 100 µM | GI50 (OVCAR-5 ovarian): > 100 µM | TGI (OVCAR-5 ovarian): > 100 µM | GI50 (OVCAR-8 ovarian): > 100 µM | TGI (OVCAR-8 ovarian): > 100 µM | GI50 (PC-3 prostate): > 100 µM | TGI (PC-3 prostate): > 100 µM | GI50 (RPMI-8226 leukemia): 49.8 µM | TGI (RPMI-8226 leukemia): > 100 µM | GI50 (RXF 393 renal): > 100 µM | TGI (RXF 393 renal): > 100 µM | GI50 (SF-268 CNS): > 100 µM | TGI (SF-268 CNS): > 100 µM | GI50 (SF-539 CNS): > 100 µM | TGI (SF-539 CNS): > 100 µM | GI50 (SK-MEL-28 melanoma): > 100 µM | TGI (SK-MEL-28 melanoma): > 100 µM | GI50 (SK-MEL-5 melanoma): > 100 µM | TGI (SK-MEL-5 melanoma): > 100 µM | GI50 (SN12C renal): > 100 µM | TGI (SN12C renal): > 100 µM | GI50 (SNB-19 CNS): > 100 µM | TGI (SNB-19 CNS): > 100 µM | GI50 (SNB-75 CNS): > 100 µM | TGI (SNB-75 CNS): > 100 µM | GI50 (SR leukemia): 64 µM | TGI (SR leukemia): > 100 µM | GI50 (T-47D breast): > 100 µM | TGI (T-47D breast): > 100 µM | GI50 (TK-10 renal): > 100 µM | TGI (TK-10 renal): > 100 µM | GI50 (UACC-257 melanoma): > 100 µM | TGI (UACC-257 melanoma): > 100 µM | GI50 (UACC-62 melanoma): > 100 µM | TGI (UACC-62 melanoma): > 100 µM | GI50 (UO-31 renal): > 100 µM | TGI (UO-31 renal): > 100 µM
